In one data set the test system is HIV. The experiment in a line: microbe, parasite or virus in culture. In kind it is cell-based. On the procedure:
Anti-HIV activity tests in vitro of the compounds according to the present invention were performed as described in J. Med. Chem, 34, 357, 1991. Inhibition by the compounds of virus-induced cytotoxic effect in MT-4 cells was measured as follows.
(§1) MT-4 cells were suspended in culture media at 2.5×10^5 cells/ml and infected with 1000 CCID50 (50% cell culture infective dose) of HIV. Immediately after virus infection, 100 μl of cell suspension was brought into each well of a flat-bottomed microtitray containing various concentrations of the test compounds. After 4 or 5 days incubation at 37° C., efficacy of the compounds was determined by the MTT method. Cytotoxicity of the compounds was assessed in parallel with their antiviral activity, based on viability of mock-infected host cells as determined by the MTT method.

For the next data set, the system named is mock-infected MT-4 cells. The experiment in a line: Cytotoxicity based on viability of mock-infected host cells (MTT method). It is filed as cell-based. The following applies: mock-infected MT-4 cells, MTT method, 4 or 5 days at 37° C. On the procedure:
as §1
(In general: Tetrazolium dyes change colour on reduction, which living cells bring about.)

[1] abbreviates: Human immunodeficiency virus 1, MT4, HIV-infected MT-4 cells, MTT method, 4 or 5 days at 37° C., read-out: ED50 (the source's name).
Where [2] appears, read: Human immunodeficiency virus 1, MT4, read-out: ED50.

Values after ≈ are worked out from the molar mass of the structure shown. Where two headings read alike, the source gives them in different places. A value given as a limit tells only on which side of the number the result lay.

For orientation: melting point means the temperature of the solid-liquid transition.

On to `Cc1cc(C)cc(Oc2c(C(C)C)c(=O)[nH]c(=O)n2CC2CC2)c1` [Example 4, 1-(Cyclopropyl)methyl-5-isopropyl-6-(3,5-dimethylphenoxy)-2,4-pyrimidinedione], for which the melting point lay in the range of 146 to 148 °C. Besides, in the data set with HIV (setting [1]), the EC50 is below 0.2 ng/mL. The compound also yielded a CD50 in the data set on mock-infected MT-4 cells of 12.70 µg/mL.
The compound `CCc1c(C(=O)c2cc(C)cc(C)c2)n(CC2CC2)c(=O)[nH]c1=O` [Example 5, 1-(Cyclopropyl)methyl-5-ethyl-6-(3,5-dimethylbenzoyl)-2,4-pyrimidinedione] registered a melting point of 234 to 236 °C. In addition, the EC50 with HIV (setting [1]) turned out to be 1.1 ng/mL (≈ 3.37 nM). The same compound gave a CD50 in the data set on mock-infected MT-4 cells of 39.4 µg/mL.
Regarding `Cc1cc(C)cc(C(=O)c2c(C(C)C)c(=O)[nH]c(=O)n2CC2CC2)c1` [Example 6, 1-(Cyclopropyl)methyl-5-isopropyl-6-(3,5-dimethylbenzoyl)-2,4-pyrimidinedione], the melting point was in the range of 193 to 195 °C. Further, in the data set on HIV (setting [1]), the EC50 amounted to 2.2 ng/mL (≈ 6.46 nM). The compound further came in with a CD50 in the data set on mock-infected MT-4 cells of 8.5 µg/mL.
On the same counts, the results for `CCc1c(C(=O)c2cc(C)cc(C)c2)n(CC2CCC2)c(=O)[nH]c1=O` [Example 11, 1-(Cyclobutyl)methyl-5-ethyl-6-(3,5-dimethylbenzoyl)-2,4-pyrimidinedione] are 200 to 202 °C, 2.7 ng/mL (≈ 7.93 nM) and 89.1 µg/mL.
For `Cc1cc(C)cc(C(=O)c2c(C(C)C)c(=O)[nH]c(=O)n2CC2CCC2)c1` [Example 12, 1-(Cyclobutyl)methyl-5-isopropyl-6-(3,5-dimethylbenzoyl)-2,4-pyrimidinedione], in that order: 171 to 173 °C, 2.7 ng/mL (≈ 7.62 nM) and 8.5 µg/mL.
`CCc1c(C(=O)c2cc(C)cc(C)c2)n(CC2CCCCC2)c(=O)[nH]c1=O` [Example 17, 1-(Cyclohexyl)methyl-5-ethyl-6-(3,5-dimethylbenzoyl)-2,4-pyrimidinedione] gave a melting point of 177 to 179 °C. Also, the EC50 in the data set on HIV (setting [2]) was 13 ng/mL (≈ 35.3 nM). For the same compound, the CD50 in the data set with mock-infected MT-4 cells stood at 7.10 µg/mL.
Consider `Cc1cc(C)cc(C(=O)c2c(C(C)C)c(=O)[nH]c(=O)n2CC2CCCCC2)c1` [Example 18, 1-(Cyclohexyl)methyl-5-isopropyl-6-(3,5-dimethylbenzoyl)-2,4-pyrimidinedione], for which the melting point was 160 to 162 °C. Moreover, the EC50 in the data set with HIV (setting [2]) turned out to be 13 ng/mL (≈ 34 nM). The compound also yielded a CD50 in the data set on mock-infected MT-4 cells of 8.00 µg/mL.
On to `CCc1c(C(=O)c2cc(C)cc(C)c2)n(Cc2ccccc2)c(=O)[nH]c1=O` [Example 23, 1-Benzyl-5-ethyl-6-(3,5-dimethylbenzoyl)-2,4-pyrimidine-dione], for which the melting point fell in the range of 202 to 204 °C. Further, in the data set on HIV (setting [1]), the EC50 was determined as 1.6 ng/mL (≈ 4.41 nM). In the data set on mock-infected MT-4 cells, the CD50 turned out to be 8.00 µg/mL.
For `Cc1cc(C)cc(C(=O)c2c(C(C)C)c(=O)[nH]c(=O)n2Cc2ccccc2)c1` [Example 24, 1-Benzyl-5-isopropyl-6-(3,5-dimethylbenzoyl)-2,4-pyrimidinedione], in that order: 188 to 190 °C, 0.9 ng/mL (≈ 2.39 nM) and 5.20 µg/mL.
Compound `CCc1c(Sc2cc(C)cc(C)c2)n(Cc2cccc(OC)c2)c(=O)[nH]c1=O` [Example 25, 1-(3-Methoxybenzyl)-5-ethyl-6-(3,5-dimethylphenyl)thio-2,4-pyrimidinedione] yielded a melting point of 130 to 131 °C. In the data set on HIV (setting [1]), the EC50 turned out to be 3 ng/mL (≈ 7.57 nM). Also, the CD50 in the data set on mock-infected MT-4 cells was 9.04 µg/mL.
In turn, `COc1cccc(Cn2c(Sc3cc(C)cc(C)c3)c(C(C)C)c(=O)[nH]c2=O)c1` [Example 26, 1-(3-Methoxybenzyl)-5-isopropyl-6-(3,5-dimethylphenyl)thio-2,4-pyrimidinedione] gave a melting point of 135 to 137 °C. Besides, the EC50 in the data set with HIV (setting [1]) came out at 3 ng/mL (≈ 7.31 nM). Further, the CD50 in the data set on mock-infected MT-4 cells turned out to be 9.53 µg/mL.
In turn, `CCc1c(Oc2cc(C)cc(C)c2)n(Cc2cccc(OC)c2)c(=O)[nH]c1=O` [Example 27, 1-(3-Methoxybenzyl)-5-ethyl-6-(3,5-dimethylphenoxy)-2,4-pyrimidinedione] gave a melting point of 133 to 135 °C. Besides, the EC50 with HIV (setting [1]) amounted to 14 ng/mL (≈ 36.8 nM). The CD50 with mock-infected MT-4 cells turned out to be 10.68 µg/mL.
`COc1cccc(Cn2c(Oc3cc(C)cc(C)c3)c(C(C)C)c(=O)[nH]c2=O)c1` [Example 28, 1-(3-Methoxybenzyl)-5-isopropyl-6-(3,5-dimethylphenoxy)-2,4-pyrimidinedione] gave a melting point of 158 to 159 °C. Besides, the EC50 with HIV (setting [1]) worked out at 6 ng/mL (≈ 15.2 nM). In the data set on mock-infected MT-4 cells, this compound displayed a CD50 of 30.60 µg/mL.
For the compound `CCc1c(C(=O)c2cc(C)cc(C)c2)n(Cc2cccc(OC)c2)c(=O)[nH]c1=O` [Example 29, 1-(3-Methoxybenzyl)-5-ethyl-6-(3,5-dimethylbenzoyl)-2,4-pyrimidinedione], the melting point fell in the range of 185 to 187 °C. The EC50 in the data set on HIV (setting [1]) came out at 3 ng/mL (≈ 7.64 nM). The CD50 in the data set on mock-infected MT-4 cells came to 7.22 µg/mL.
On the same counts, the results for `COc1cccc(Cn2c(C(=O)c3cc(C)cc(C)c3)c(C(C)C)c(=O)[nH]c2=O)c1` [Example 30, 1-(3-Methoxybenzyl)-5-isopropyl-6-(3,5-dimethylbenzoyl)-2,4-pyrimidinedione] are 184 to 186 °C, 2 ng/mL (≈ 4.92 nM) and 3.83 µg/mL.
Compound `CCc1c(Sc2cc(C)cc(C)c2)n(Cc2ccc(OC(F)(F)F)cc2)c(=O)[nH]c1=O` [Example 31, 1-(4-Trifluoromethoxybenzyl)-5-ethyl-6-(3,5-dimethylphenyl)thio-2,4-pyrimidinedione] showed a melting point of 138 to 140 °C. For the same compound, the EC50 with HIV (setting [1]) was found to be 17 ng/mL (≈ 37.7 nM). In the data set with mock-infected MT-4 cells, this compound displayed a CD50 of 4.86 µg/mL.
`Cc1cc(C)cc(Sc2c(C(C)C)c(=O)[nH]c(=O)n2Cc2ccc(OC(F)(F)F)cc2)c1` [Example 32, 1-(4-Trifluoromethoxybenzyl)-5-isopropyl-6-(3,5-dimethylphenyl)thio-2,4-pyrimidinedione] had a melting point of 124 to 126 °C. Moreover, the EC50 in the data set with HIV (setting [1]) was 17 ng/mL (≈ 36.6 nM). In addition, the CD50 in the data set on mock-infected MT-4 cells stood at 8.99 µg/mL.
Turning to `CCc1c(Oc2cc(C)cc(C)c2)n(Cc2ccc(OC(F)(F)F)cc2)c(=O)[nH]c1=O` [Example 33, 1-(4-Trifluoromethoxybenzyl)-5-ethyl-6-(3,5-dimethyl-phenoxy)-2,4-pyrimidinedione], the melting point was 148 to 150 °C. In the data set on HIV (setting [1]), the EC50 stood at 69 ng/mL (≈ 159 nM). Moreover, the CD50 in the data set with mock-infected MT-4 cells was above 100.00 µg/mL.
For `Cc1cc(C)cc(Oc2c(C(C)C)c(=O)[nH]c(=O)n2Cc2ccc(OC(F)(F)F)cc2)c1` [Example 34, 1-(4-Trifluoromethoxybenzyl)-5-isopropyl-6-(3,5-dimethylphenoxy)-2,4-pyrimidinedione], the melting point is 173 to 175 °C. Besides, the EC50 in the data set on HIV (setting [1]) amounted to 45 ng/mL (≈ 100 nM). Also, in the data set with mock-infected MT-4 cells, the CD50 stood at 8.06 µg/mL.
On to `CCc1c(C(=O)c2cc(C)cc(C)c2)n(Cc2ccc(OC(F)(F)F)cc2)c(=O)[nH]c1=O` [Example 35, 1-(4-Trifluoromethoxybenzyl)-5-ethyl-6-(3,5-dimethylbenzoyl)-2,4-pyrimidinedione], for which the melting point is 155 to 157 °C. In addition, the EC50 in the data set on HIV (setting [1]) amounted to 4 ng/mL (≈ 8.96 nM). In the data set on mock-infected MT-4 cells, this compound yielded a CD50 of 33.83 µg/mL.

Values taken from patent publication US6987114B1, “Antiviral pyrimidinedione derivatives and process for the preparation thereof” (Samjin Pharmaceutical Co., Ltd, priority 1999, dated 2006).
